Test results taken from publication PMC8843100, “Development of newly synthesised quinazolinone-based CDK2 inhibitors with potent efficacy against melanoma” (Journal of Enzyme Inhibition and Medicinal Chemistry, 2022).

What was measured:
786-0 = test: NCI-60 single dose screen, sulforhodamine B; format: cell-based, human; conditions: Renal cancer 786-0; single dose 10^−5 M
Experimental: (§1) In this research, all of the newly synthesised quinazolinones were subjected to in vitro anticancer screening by the National Cancer Institute (USA) against 60 different human cell lines including leukaemia, non-small cell lung cancer, colon cancer, CNS cancer, melanoma, ovarian cancer, renal cancer, prostate cancer, and breast cancer. The tested compounds were evaluated at a single dose (10^−5 M). […] Regarding the benzenesulfonamide counterparts, the introduction of an electron-withdrawing group on the benzenesulfonamide moiety increased the inhibitory activity on the glioblastoma cell line SNB-75 as depicted by the chloro derivative 5c (GI% = 63.09) which was higher than that of the unsubstituted derivative 5a (GI% = 40.06) and the methyl derivative 5b (GI% = 33.03).
(§2) 1. Cytotoxicity screening against a panel of 60 human tumor cell lines
(§3) All the compounds were selected for NCI-60 Human Tumor Cell Lines Screen by the Developmental Therapeutics Program (DTP) at the National Cancer Institute (NCI), Maryland, USA. The operation of this screen utilizes 60 different human tumor cell lines, representing leukemia, non-small-cell lung cancer, colon cancer, CNS cancer, melanoma, ovarian cancer, renal cancer, prostate cancer and breas t cancer.
(§4) The compounds were supplied as dry powder and a single concentration is tested in all 60 cell lines at a single dose of 10 µM solution in dimethyl sulfoxide (DMSO) using Sulforhodamine B assay. Briefly, cells are seeded in 96 well plates at an appropriate density and incubated for 1 day. After 1 day, some of the plates are processed to determine the density time zero. To the remaining plates, compounds are added at 10 µM concentration. Plates are incubated a further 2 days, then fixed and staine d with sulphorhodamine B. Growth inhibition is calculated relative to cells without drug treatment and the time zero control. The use of a time zero control allows the determination of cell kill as well as net growth inhibition. […]

ACHN = test: NCI-60 single dose screen, sulforhodamine B; format: cell-based, human; conditions: Renal cancer ACHN; single dose 10^−5 M
Experimental: as §1, §2, §3, §4

CCRF-CEM = test: NCI-60 single dose screen, sulforhodamine B; format: cell-based, human; conditions: Leukaemia CCRF-CEM; single dose 10^−5 M
Experimental: as §1, §2, §3, §4

COLO 205 = test: NCI-60 single dose screen, sulforhodamine B; format: cell-based, human; conditions: Colon cancer COLO 205; single dose 10^−5 M
Experimental: as §1, §2, §3, §4

DU-145 = test: NCI-60 single dose screen, sulforhodamine B; format: cell-based, human; conditions: Prostate cancer DU-145; single dose 10^−5 M
Experimental: as §1, §2, §3, §4

EKVX = test: NCI-60 single dose screen, sulforhodamine B; format: cell-based, human; conditions: Non-small cell lung cancer EKVX; single dose 10^−5 M
Experimental: as §1, §2, §3, §4

HCC-2998 = test: NCI-60 single dose screen, sulforhodamine B; format: cell-based, human; conditions: Colon cancer HCC-2998; single dose 10^−5 M
Experimental: as §1, §2, §3, §4

HOP-62 = test: NCI-60 single dose screen, sulforhodamine B; format: cell-based, human; conditions: Non-small cell lung cancer HOP-62; single dose 10^−5 M
Experimental: as §1, §2, §3, §4

HS 578T = test: NCI-60 single dose screen, sulforhodamine B; format: cell-based, human; conditions: Breast cancer HS 578T; single dose 10^−5 M
Experimental: as §1, §2, §3, §4

HT29 = test: NCI-60 single dose screen, sulforhodamine B; format: cell-based, human; conditions: Colon cancer HT29; single dose 10^−5 M
Experimental: as §1, §2, §3, §4

K-562 = test: NCI-60 single dose screen, sulforhodamine B; format: cell-based, human; conditions: Leukaemia K-562; single dose 10^−5 M
Experimental: as §1, §2, §3, §4

KM12 = test: NCI-60 single dose screen, sulforhodamine B; format: cell-based, human; conditions: Colon cancer KM12; single dose 10^−5 M
Experimental: as §1, §2, §3, §4

LOX IMVI = test: NCI-60 single dose screen, sulforhodamine B; format: cell-based, human; conditions: Melanoma LOX IMVI; single dose 10^−5 M
Experimental: as §1, §2, §3, §4

M14 = test: NCI-60 single dose screen, sulforhodamine B; format: cell-based, human; conditions: Melanoma M14; single dose 10^−5 M
Experimental: as §1, §2, §3, §4

MDA-MB-435 = test: NCI-60 single dose screen, sulforhodamine B; format: cell-based, human; conditions: Melanoma MDA-MB-435; single dose 10^−5 M
Experimental: as §1, §2, §3, §4

MOLT-4 = test: NCI-60 single dose screen, sulforhodamine B; format: cell-based, human; conditions: Leukaemia MOLT-4; single dose 10^−5 M
Experimental: as §1, §2, §3, §4

NCI-H226 = test: NCI-60 single dose screen, sulforhodamine B; format: cell-based, human; conditions: Non-small cell lung cancer NCI-H226; single dose 10^−5 M
Experimental: as §1, §2, §3, §4

NCI-H23 = test: NCI-60 single dose screen, sulforhodamine B; format: cell-based, human; conditions: Non-small cell lung cancer NCI-H23; single dose 10^−5 M
Experimental: as §1, §2, §3, §4

NCI-H322M = test: NCI-60 single dose screen, sulforhodamine B; format: cell-based, human; conditions: Non-small cell lung cancer NCI-H322M; single dose 10^−5 M
Experimental: as §1, §2, §3, §4

NCI-H460 = test: NCI-60 single dose screen, sulforhodamine B; format: cell-based, human; conditions: Non-small cell lung cancer NCI-H460; single dose 10^−5 M
Experimental: as §1, §2, §3, §4

NCI/ADR-RES = test: NCI-60 single dose screen, sulforhodamine B; format: cell-based, human; conditions: Ovarian cancer NCI/ADR-RES; single dose 10^−5 M
Experimental: as §1, §2, §3, §4

OVCAR-3 = test: NCI-60 single dose screen, sulforhodamine B; format: cell-based, human; conditions: Ovarian cancer OVCAR-3; single dose 10^−5 M
Experimental: as §1, §2, §3, §4

OVCAR-8 = test: NCI-60 single dose screen, sulforhodamine B; format: cell-based, human; conditions: Ovarian cancer OVCAR-8; single dose 10^−5 M
Experimental: as §1, §2, §3, §4

RPMI-8226 = test: NCI-60 single dose screen, sulforhodamine B; format: cell-based, human; conditions: Leukaemia RPMI-8226; single dose 10^−5 M
Experimental: as §1, §2, §3, §4

RXF 393 = test: NCI-60 single dose screen, sulforhodamine B; format: cell-based, human; conditions: Renal cancer RXF 393; single dose 10^−5 M
Experimental: as §1, §2, §3, §4

SK-MEL-2 = test: NCI-60 single dose screen, sulforhodamine B; format: cell-based, human; conditions: Melanoma SK-MEL-2; single dose 10^−5 M
Experimental: as §1, §2, §3, §4

SN12C = test: NCI-60 single dose screen, sulforhodamine B; format: cell-based, human; conditions: Renal cancer SN12C; single dose 10^−5 M
Experimental: as §1, §2, §3, §4

SNB-19 = test: NCI-60 single dose screen, sulforhodamine B; format: cell-based, human; conditions: CNS cancer SNB-19; single dose 10^−5 M
Experimental: as §1, §2, §3, §4

SW-620 = test: NCI-60 single dose screen, sulforhodamine B; format: cell-based, human; conditions: Colon cancer SW-620; single dose 10^−5 M
Experimental: as §1, §2, §3, §4

U251 = test: NCI-60 single dose screen, sulforhodamine B; format: cell-based, human; conditions: CNS cancer U251; single dose 10^−5 M
Experimental: as §1, §2, §3, §4

UO-31 = test: NCI-60 single dose screen, sulforhodamine B; format: cell-based, human; conditions: Renal cancer UO-31; single dose 10^−5 M
Experimental: as §1, §2, §3, §4

| Compound | GI% at 10^−5 M (786-0) | GI% at 10^−5 M (ACHN) | GI% at 10^−5 M (CCRF-CEM) | GI% at 10^−5 M (COLO 205) | GI% at 10^−5 M (DU-145) | GI% at 10^−5 M (EKVX) | GI% at 10^−5 M (HCC-2998) | GI% at 10^−5 M (HOP-62) | GI% at 10^−5 M (HS 578T) | GI% at 10^−5 M (HT29) | GI% at 10^−5 M (K-562) | GI% at 10^−5 M (KM12) | GI% at 10^−5 M (LOX IMVI) | GI% at 10^−5 M (M14) | GI% at 10^−5 M (MDA-MB-435) | GI% at 10^−5 M (MOLT-4) | GI% at 10^−5 M (NCI-H226) | GI% at 10^−5 M (NCI-H23) | GI% at 10^−5 M (NCI-H322M) | GI% at 10^−5 M (NCI-H460) | further results |
| --- | --- | --- | --- | --- | --- | --- | --- | --- | --- | --- | --- | --- | --- | --- | --- | --- | --- | --- | --- | --- | --- |
| O=C(CNn1c(COc2ccccc2)nc2ccccc2c1=O)Nc1ccccc1 [Compound 4a, 2-((4-oxo-2-(phenoxymethyl)quinazolin-3(4H)-yl)amino)-N-phenylacetamide] | – (– means GI < 10%) | – (– means GI < 10%) | – (– means GI < 10%) | – (– means GI < 10%) | – (– means GI < 10%) | 14.38% | – (– means GI < 10%) | 13.59% | 11.86% | – (– means GI < 10%) | – (– means GI < 10%) | – (– means GI < 10%) | – (– means GI < 10%) | – (– means GI < 10%) | – (– means GI < 10%) | – (– means GI < 10%) | – (– means GI < 10%) | 16.55% | – (– means GI < 10%) | – (– means GI < 10%) | GI% at 10^−5 M (NCI/ADR-RES): – (– means GI < 10%); GI% at 10^−5 M (OVCAR-3): – (– means GI < 10%); GI% at 10^−5 M (OVCAR-8): – (– means GI < 10%); GI% at 10^−5 M (RPMI-8226): – (– means GI < 10%); GI% at 10^−5 M (RXF 393): – (– means GI < 10%); GI% at 10^−5 M (SK-MEL-2): – (– means GI < 10%); GI% at 10^−5 M (SN12C): 13.08%; GI% at 10^−5 M (SNB-19): – (– means GI < 10%); GI% at 10^−5 M (SW-620): – (– means GI < 10%); GI% at 10^−5 M (U251): – (– means GI < 10%); GI% at 10^−5 M (UO-31): 21.57%; melting point: 135 to 137 °C |
| COc1ccc(NC(=O)CNn2c(COc3ccccc3)nc3ccccc3c2=O)cc1 [Compound 4b, N-(4-methoxyphenyl)-2-((4-oxo-2-(phenoxymethyl)quinazolin-3(4H)-yl)amino)acetamide] | – (– means GI < 10%) | – (– means GI < 10%) | – (– means GI < 10%) | – (– means GI < 10%) | – (– means GI < 10%) | 10.17% | – (– means GI < 10%) | 12.71% | – (– means GI < 10%) | – (– means GI < 10%) | – (– means GI < 10%) | – (– means GI < 10%) | – (– means GI < 10%) | – (– means GI < 10%) | – (– means GI < 10%) | – (– means GI < 10%) | – (– means GI < 10%) | – (– means GI < 10%) | – (– means GI < 10%) | – (– means GI < 10%) | GI% at 10^−5 M (NCI/ADR-RES): – (– means GI < 10%); GI% at 10^−5 M (OVCAR-3): – (– means GI < 10%); GI% at 10^−5 M (OVCAR-8): – (– means GI < 10%); GI% at 10^−5 M (RPMI-8226): – (– means GI < 10%); GI% at 10^−5 M (RXF 393): – (– means GI < 10%); GI% at 10^−5 M (SK-MEL-2): – (– means GI < 10%); GI% at 10^−5 M (SN12C): 12.37%; GI% at 10^−5 M (SNB-19): – (– means GI < 10%); GI% at 10^−5 M (SW-620): – (– means GI < 10%); GI% at 10^−5 M (U251): – (– means GI < 10%); GI% at 10^−5 M (UO-31): 15.77%; melting point: 146 to 148 °C |
| O=c1c2ccccc2nc(COc2ccccc2)n1NS(=O)(=O)c1ccc(Cl)cc1 [Compound 5c, 4-chloro-N-(4-oxo-2-(phenoxymethyl)quinazolin-3(4H)-yl)benzenesulfonamide] | – (– means GI < 10%) | – (– means GI < 10%) | – (– means GI < 10%) | – (– means GI < 10%) | – (– means GI < 10%) | 25.19% | 22.36% | 25.00% | 24.96% | 20.01% | 52.75% | 44.77% | 16.40% | 25.84% | 94.53% | 30.51% | 17.00% | 17.19% | 17.13% | – (– means GI < 10%) | GI% at 10^−5 M (NCI/ADR-RES): 26.99%; GI% at 10^−5 M (OVCAR-3): – (– means GI < 10%); GI% at 10^−5 M (OVCAR-8): – (– means GI < 10%); GI% at 10^−5 M (RPMI-8226): – (– means GI < 10%); GI% at 10^−5 M (RXF 393): – (– means GI < 10%); GI% at 10^−5 M (SK-MEL-2): 25.29%; GI% at 10^−5 M (SN12C): 23.41%; GI% at 10^−5 M (SNB-19): 20.21%; GI% at 10^−5 M (SW-620): 30.94%; GI% at 10^−5 M (U251): 12.24%; GI% at 10^−5 M (UO-31): 37.25%; melting point: 208 to 210 °C |
